The record followed here is patent publication US20240294551A1 (AMGEN INC., priority 2022, published 2024).

Test [1] concerns AsPC-1 cells. The experiment in a line: AsPC-1 CTG Assay (CellTiter-Glo cell viability). Type of test: cell-based, human. As to conditions: Homo sapiens, ASPC1, 72 h, first value of the cell, read-out: G12D/C/V Cell Proliferation CTG (72 h) AsPC-1. The method, boiled down: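 Human pancreatic AsPC-1 or colon SW620 cells in RPMI 1640 with 10% FBS, seeded overnight, then exposed to serially diluted compound for 72 h at 37 °C. CellTiter-Glo luminescence normalized to DMSO control; IC50 from a 4-parameter logistic model.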
(In general: Cellular ATP, detected with luciferase, serves as a proxy for viable cell number.)

Test [2] concerns SW620 cells. The experiment in a line: SW620 CTG Assay (CellTiter-Glo cell viability). Type of test: cell-based, human. As to conditions: Homo sapiens, SW-620; SW620, 72 h; third value of the cell; read-out: G12D/C/V Cell Proliferation CTG (72 h) SW620. The procedure:
AsPC-1 and SW620 CTG Assay Protocols
AsPC-1 (human pancreatic adenocarcinoma; ATCC CRL-1682) or SW620 (human colon adenocarcinoma; ATCC CCL-227) cells were cultured in RPMI 1640 medium containing 10% fetal bovine serum and 1× penicillin/streptomycin/L-glutamine. Cells were seeded in 384-well plates at a density of 3.33E+04 cells/mL and incubated at 37° C., 5% CO2, overnight. Serially-diluted compound or DMSO was added to the cells, and plates were incubated at 37° C., 5% CO2 for 72 h. Cell viability was measured using a CellTiter-Glo® Luminescent Cell Viability Assay kit (Promega) according to the manufacturer's protocol. The luminescence signal of treated samples was normalized to DMSO control, and data were analyzed using a 4-parameter logistic model to calculate IC50 values.

Test [3] concerns the target His-tagged KRAS G12D protein (Homo sapiens (Human), UniProt P01116, G12D). The experiment in a line: KRAS G12D TR-FRET Assay. Format: binding. Summed up:
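His-tagged KRAS G12D (diluted to 20 nM in pH 7.4 HEPES buffer with 10 mM MgCl2 and 10 μM GDP) was preincubated with titrated compound for 30 min at room temperature. Biotinylated KRPep-2d peptide (diluted to 20 nM) was then added for 1 h, and displacement was monitored by TR-FRET.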
Background: Time-resolved FRET reads energy transfer from a long-lived donor to a nearby acceptor.

Test [4] has as its system Phosphorylation of ERK1/2 in AsPC-1 cells. The experiment in a line: Phospho-ERK1/2 MSD Assay. Format: cell-based, human. As to conditions: Homo sapiens, ASPC1, 2 h. Summed up:
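Read-out: MSD electrochemiluminescent detection of phosphorylated ERK1/2 in whole-cell lysates, fitted to a 4-parameter logistic curve for IC50. Prior to lysis, AsPC-1 cells (25,000 per well) received a 2 h compound dose-response at 37 °C.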

The target of test [5] is GDP-bound KRAS protein (aa 1-169), containing both G12D and C118A amino acid substitutions (Homo sapiens (Human), UniProt P01116, C118A/G12D). Briefly: KRAS G12D Coupled Nucleotide Exchange Assay. Type of test: biochemical.
Sequence of GDP-bound KRAS protein (aa 1-169), containing both G12D and C118A amino acid substitutions (P01116 other isoform, or with tags, fused parts or gaps G12D/C118A): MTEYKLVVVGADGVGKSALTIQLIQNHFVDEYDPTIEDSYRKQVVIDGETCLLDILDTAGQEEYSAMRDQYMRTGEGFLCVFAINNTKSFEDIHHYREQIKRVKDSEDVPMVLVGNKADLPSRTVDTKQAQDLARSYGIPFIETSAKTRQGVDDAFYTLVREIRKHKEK
Test [6] has as its system MIA PaCa-2 cells. The experiment in a line: MIA PaCa-2 CTG Assay (CellTiter-Glo cell viability). Format: cell-based, human. As to conditions: Homo sapiens; MIA PaCa-2 cells (G12C), 72 h; second value of the cell; read-out: G12D/C/V Cell Proliferation CTG (72 h) MIA PaCa-2. The method, boiled down: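 Human pancreatic carcinoma cells in RPMI 1640 with 10% FBS, seeded at 1.67E+04 cells/mL and left overnight, were treated with serially diluted compound for 72 h at 37° C, 5% CO2. Viability was read by CellTiter-Glo luminescence normalized to DMSO; IC50 came from a 4-parameter logistic fit.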

The mark [7] stands for this setting: read-out: KRAS G12D Binding IC50.
[8] abbreviates: read-out: 2 h p-ERK (AsPC-1 cells), IC50.
Where [9] appears, read: read-out: KRAS G12D Coupled Exchange IC50.
The mark [10] stands for this setting: TR-FRET, read-out: KRAS G12D Binding.
[11] abbreviates: read-out: 2 h p-ERK (AsPC-1 cells).
The mark [12] stands for this setting: 2 hours compound pre-incubation, read-out: KRAS G12D Coupled Exchange.

SMILES strings stand for the structures. Where a name gives a salt, the structure may show the parent alone. Read-outs that look alike come from different tables or passages of the source.

Sequence of His-tagged KRAS G12D protein (P01116 other isoform, or with tags, fused parts or gaps G12D): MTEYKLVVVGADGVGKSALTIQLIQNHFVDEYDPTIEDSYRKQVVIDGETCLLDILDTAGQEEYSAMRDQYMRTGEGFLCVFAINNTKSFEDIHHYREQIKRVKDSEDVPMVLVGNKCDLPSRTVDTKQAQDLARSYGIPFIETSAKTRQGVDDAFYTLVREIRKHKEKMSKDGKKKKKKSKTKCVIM

For the compound `Fc1c2ncc3c(nc(OC[C@@]45CCCN4C[C@H](F)C5)nc13)N1CCOC[C@@H](COCCCCc3c(Cl)cc4[nH]ncc4c3-2)C1` (single isomer, unassigned) [Example 137], the IC50 in test [1] (AsPC-1, 72 h) is 420 nM; in test [2] it was 96.7 nM; in test [3] (setting [7]) it was 4 nM; in test [4] (setting [8]), 47 nM; in test [5] (setting [9]), 2 nM.
In the same order, the values of `Cc1cc2[nH]ncc2c2c1CCOC(=O)O[C@H]1C[C@]3(CCCN(C3)c3nc(OC[C@@H]4CCCN4C)nc4c(F)c-2ncc34)C1` (single isomer, unassigned) [Example 326] are 114 nM, 66 nM, 4 nM, 16.8 nM and 2 nM.
Take `C[C@@]12CCCN(C1)c1nc(OC[C@@]34CCCN3C[C@H](F)C4)nc3c(F)c(ncc13)-c1cc(O)cc3cccc(c13)CCCCC(=O)N2` [Example 8, (15R)-32-Fluoro-8-(((2R,7aS)-2-fluorotetrahydro-1H-pyrrolo[1,2-a]pyrrol-7a(5H)-yl)methoxy)-28-hydroxy-15-methyl-3,7,9,11,16-pentaazahexacyclo[20.7.1.1˜2,6˜.1˜11,15˜.0˜5,10˜.0˜26,30˜]dotriaconta-1(29),2(32),3,5,7,9,22,24,26(30),27-decaen-17-one (2,2,2-trifluoroacetate) salt]: the IC50 in test [2] is 579 nM; in test [3] (setting [7]), 8 nM; in test [4] (setting [8]), 60 nM; in test [5] (setting [9]) it was 6 nM.
Turning to `Cc1cc2[nH]ncc2c2c1CCCOC(=O)O[C@@H]1COCCN(C1)c1nc(OC[C@@]34CCCN3C[C@H](F)C4)nc3c(F)c-2c(F)cc13` [Example 102, (26S)-9,32-difluoro-4-(((2R,7aS)-2-fluorotetrahydro-1H-pyrrolo[1,2-a]pyrrol-7a(5H)-yl)methoxy)-18-methyl-23,25,28-trioxa-1,3,5,14,15-pentaazahexacyclo[24.4.1.1~6,10~.0~2,7~.0~11,19~.0~12,16~]dotriaconta-2,4,6,8,10(32),11,13,16,18-nonaen-24-one], the IC50 was found to be 90 nM in test [1] (AsPC-1, 72 h); 22.6 nM in test [2]; 10 nM in test [4] (setting [8]).
With `CN(C)CC1(COc2nc3c4cnc(c(F)c4n2)-c2c(c(Cl)cc4[nH]ncc24)CCOC(=O)O[C@H]2C[C@]4(CCCN3C4)C2)CC1` [Example 334, (1S,3R)-10-chloro-24-((1-((dimethylamino)methyl)cyclopropyl)methoxy)-32-fluoro-4,6-dioxa-13,14,19,23,25,27-hexaazaheptacyclo[25.3.1.1~1,3~.1~18,22~.0~9,17~.0~12,16~.0~21,26~]tritriaconta-9,11,14,16,18(32),19,21,23,25-nonaen-5-one], the IC50 turned out to be 117 nM in test [1] (AsPC-1, 72 h); 31 nM in test [2]; 8 nM in test [4] (setting [8]); 1 nM in test [5] (setting [9]).
For the compound `O=C1CCCCc2c(Cl)cc3[nH]ncc3c2-c2ncc3c(nc(OC[C@@]45CCCN4C[C@H](F)C5)nc3c2F)N2CCC[C@@H](C1)C2` [Example 372], the IC50 in test [6] was determined as 20 nM; in test [1] (AsPC-1 cells (G12D), 72 h) it was 17 nM; in test [3] (setting [10]), 3 nM; in test [4] (setting [11]) it was 4.4 nM; in test [5] (setting [12]) it was 2 nM.
In the same order, the values of `Cc1cc2[nH]ncc2c2c1CCc1cnc(o1)[C@@H](O)[C@@H]1CCCN(C1)c1nc(OC[C@@]34CCCN3C[C@H](F)C4)nc3c(F)c-2ncc13` [Example 373] are 5 nM, 21 nM, 7 nM, 7 nM and 3 nM.
In the same order, the values of `Fc1c2ncc3c(nc(OC[C@@]45CCCN4C[C@H](F)C5)nc13)N1CCC[C@@H](Cc3nnc(o3)CCc3c(Cl)cc4[nH]ncc4c3-2)C1` [Example 391, (18S)-9-chloro-31-fluoro-25-(((2R,7aS)-2-fluorotetrahydro-1H-pyrrolo[1,2-a]pyrrol-7a(5H)-yl)methoxy)-33-oxa-5,6,14,15,22,24,26,30-octaazaheptacyclo[25.3.1.1~13,16~.1~18,22~.0~2,10~.0~3,7~.0~23,28~]tritriaconta-1(31),2,4,7,9,13,15,23,25,27,29-undecaene] are 183 nM, 265 nM, 4 nM, 36.3 nM and 2 nM.
In the same order, the values of `CN1CCC[C@H]1COc1nc2c3cnc(c(F)c3n1)-c1c(c(Cl)cc3[nH]ncc13)CCc1cnc(o1)[C@@H](O)[C@@H]1CCCN2C1` [Example 394, (17S,18R)-9-chloro-31-fluoro-25-(((2S)-1-methylpyrrolidin-2-yl)methoxy)-33-oxa-5,6,15,22,24,26,30-heptaazaheptacyclo[25.3.1.1~13,16~.1~18,22~.0~2,10~.0~3,7~.0~23,28~]tritriaconta-1(31),2,4,7,9,13,15,23,25,27,29-undecaen-17-ol] are 10 nM, 58 nM, 5 nM, 3 nM and 2 nM.
As to `O[C@]12CCOCCc3c(Cl)cc4[nH]ncc4c3-c3ncc4c(nc(OC[C@@]56CCCN5C[C@H](F)C6)nc4c3F)N3CCC[C@@](C3)(C1)C2` [Example 397, (1S,3R)-10-chloro-32-fluoro-24-(((2R,7aS)-2-fluorotetrahydro-1H-pyrrolo[1,2-a]pyrrol-7a(5H)-yl)methoxy)-6-oxa-13,14,19,23,25,27-hexaazaheptacyclo[25.3.1.1~1,3~.1~18,22~.0~9,17~.0~12,16~.0~21,26~]tritriaconta-9,11,14,16,18(32),19,21,23,25-nonaen-3-ol], the IC50 in test [6] amounted to 3 nM; in test [1] (AsPC-1 cells (G12D), 72 h), 12 nM; in test [3] (setting [10]), 4 nM; in test [4] (setting [11]), 1.4 nM; in test [5] (setting [12]), 2 nM.
In the same order, the values of `Fc1c2ncc3c(nc(OC[C@@]45CCCN4C[C@H](F)C5)nc13)N1CCCC[C@](F)(COCCCCc3c(Cl)cc4[nH]ncc4c3-2)C1` [Example 398, (26R)-18-chloro-26,32-difluoro-4-(((2R,7aS)-2-fluorotetrahydro-1H-pyrrolo[1,2-a]pyrrol-7a(5H)-yl)methoxy)-24-oxa-1,3,5,9,14,15-hexaazahexacyclo[24.4.1.1~6,10~.0~2,7~.0~11,19~.0~12,16~]dotriaconta-2,4,6,8,10(32),11,13,16,18-nonaene] are 170 nM, 35 nM, 4 nM, 26.8 nM and 2 nM.
In the same order, the values of `Fc1c2ncc3c(nc(OC[C@@]45CCCN4C[C@H](F)C5)nc13)N1CCCC[C@@](F)(COCCCCc3c(Cl)cc4[nH]ncc4c3-2)C1` [Example 399, (26S)-18-chloro-26,32-difluoro-4-(((2R,7aS)-2-fluorotetrahydro-1H-pyrrolo[1,2-a]pyrrol-7a(5H)-yl)methoxy)-24-oxa-1,3,5,9,14,15-hexaazahexacyclo[24.4.1.1~6,10~.0~2,7~.0~11,19~.0~12,16~]dotriaconta-2,4,6,8,10(32),11,13,16,18-nonaene] are 105 nM, 44 nM, 4 nM, 25.9 nM and 2 nM.
